In publication PMC7327145 (Biomolecules & Therapeutics, 2020):
“And” between values parts separate entries of the source, which are not always exact repeats. Equal values may be shown once. Read-outs that look alike come from different tables or passages of the source.

Tests used:
[1] = Tissue distribution of tofacitinib 30 min after intravenous administration; type: in vivo, rat; conditions: 30 min after intravenous 10 mg/kg, control and SIDM rats
[2] = hepatic microsomes, SIDM vs control
[3] = Rat plasma protein binding by equilibrium dialysis; type: in vitro ADME; conditions: fresh plasma, pH 7.4, Plasma protein binding, range over control and SIDM rats
[4] = tested on: P-glycoprotein (P-gp); conditions: ref Hussa, 2014; cited from earlier work
[5] = type: in vivo, rat; conditions: for CL renal: plasma and urine, CLR; for bioavailability: oral, F (bioavailability), oral 20 mg/kg vs intravenous 10 mg/kg
[6] = intestinal microsomes
[7] = ref Lawendy et al., 2009; Dowty et al., 2014; cited from earlier work
[8] = type: in vivo, rat; conditions: for AUC / clearance / MRT / half-life / Vd: plasma; for clearance: CL; for half-life: Terminal half-life; for Vd: VSS
[9] = intravenous 10 mg/kg, SIDM rats
[10] = intravenous 10 mg/kg, SIDM vs control
[11] = intravenous 10 mg/kg, control rats
[12] = rat, iv, 10 mg/kg, control rats

- Tissue distribution [1]: widely distributed
- CLint faster in SIDM rats than control rats [2]: 112%
- Km smaller in SIDM rats than control rats [2]: 44.3%
- fraction unbound at 24 h, 10 µg/mL [3]: 0.769 to 0.781
- Ae0-24 h (dose excreted in urine for 24 h) ([5]; oral 20 mg/kg, SIDM rats): 6.94 ± 2.42 % of dose
- AUC lower in SIDM rats than control rats ([5]; oral 20 mg/kg, SIDM vs control): 55.5%
- CLR higher in SIDM rats than control rats ([5]; oral 20 mg/kg, SIDM vs control): 145%
- Cmax lower in SIDM rats than control rats ([5]; oral 20 mg/kg, SIDM vs control): 61.1%
- Decrease of F (bioavailability) in SIDM rats vs control rats ([5]; oral 20 mg/kg, SIDM vs control, 20 mg/kg): 33%
- Ae0-24 h (dose excreted in urine for 24 h) ([5]; oral 20 mg/kg, control rats): 7.98 ± 1.34 % of dose
- CL renal ([5]; rat, po, 20 mg/kg, oral 20 mg/kg, SIDM rats): 21.7 ± 14.9 mL/min/kg
- CL renal ([5]; rat, po, 20 mg/kg, oral 20 mg/kg, control rats): 8.86 ± 13.5 mL/min/kg
- bioavailability ([5]; rat, plasma, 20 mg/kg, SIDM rats): 23.8%
- bioavailability ([5]; rat, plasma, 20 mg/kg, control rats): 35.5%
- AUC ([5]; rat, plasma, po, 20 mg/kg, oral 20 mg/kg, SIDM rats (n=7)): 1350 ng·h/mL
- AUC ([5]; rat, plasma, po, 20 mg/kg, oral 20 mg/kg, control rats (n=8)): 3030 ng·h/mL
- Cmax ([5]; rat, plasma, po, 20 mg/kg, Cmax, oral 20 mg/kg, SIDM rats): 680 ± 360 ng/mL
- Tmax ([5]; rat, plasma, po, 20 mg/kg, oral 20 mg/kg, SIDM rats): 25.7 min
- Tmax ([5]; rat, plasma, po, 20 mg/kg, oral 20 mg/kg, control rats): 17.9 min
- Km, SIDM vs control rats [6]: comparable
- CLint faster in SIDM rats than control rats ([6]; SIDM vs control): 35.4%
- Ae0-24 h (dose excreted in urine for 24 h) [8, 9]: 6.64 ± 1.65 % of dose
- CLNR [8, 9]: 55.5 ± 9.79 mL/min/kg
- CLR estimated from the free (unbound to plasma proteins) fraction [8, 9]: 6.15 mL/min/kg
- Contribution of CLR to CL [8, 9]: 7.97%
- AUC smaller in SIDM rats than control rats [8, 10]: 33.6%
- CL higher in SIDM rats than control rats [8, 10]: 51.1%
- CLNR higher in SIDM rats than control rats [8, 10]: 43.8%
- CLR higher in SIDM rats than control rats [8, 10]: 87.5%
- Vss greater in SIDM rats than control rats [8, 10]: 262%
- Ae0-24 h (dose excreted in urine for 24 h) [8, 11]: 6.99 ± 2.30 % of dose
- CLNR [8, 11]: 38.6 ± 8.04 mL/min/kg
- CLR estimated from the free (unbound to plasma proteins) fraction [8, 11]: 3.33 mL/min/kg
- Contribution of CLR to CL [8, 11]: 6.42%
- CL renal ([8]; rat, plasma and urine, iv, 10 mg/kg, CLR, control rats): 2.56 ± 0.59 mL/min/kg
- AUC ([8]; rat, iv, 10 mg/kg, SIDM rats (n=7)): 2830 ng·h/mL
- AUC ([8]; rat, iv, 10 mg/kg, control rats (n=9)): 4270 ng·h/mL
- clearance ([8]; rat, iv, 10 mg/kg, SIDM rats): 60.3 ± 11.1 mL/min/kg
- clearance [8, 12]: 39.9 ± 6.74 mL/min/kg
- MRT ([8]; rat, iv, 10 mg/kg, SIDM rats): 44.3 min
- MRT [8, 12]: 21.3 min
- half-life ([8]; rat, iv, 10 mg/kg, SIDM rats): 26.5 ± 2.81 min
- half-life [8, 12]: 30.2 ± 4.83 min
- Vd ([8]; rat, iv, 10 mg/kg, SIDM rats): 3.56 ± 2.38 L/kg
- Vd [8, 12]: 0.986 ± 0.379 L/kg
Compound: C[C@@H]1CCN(C(=O)CC#N)C[C@@H]1N(C)c1ncnc2[nH]ccc12 [tofacitinib, 3-[(3R,4R)-4-methyl-3-[methyl-(7H-pyrrolo[2,3-day]pyrimidin-4-yl)amino]piperidin-1-yl]-3-oxopropanenitrile]
- P-glycoprotein (P-gp) substrate status [4]: substrate of P-glycoprotein
- GI24 h (dose remaining in the gastrointestinal tract at 24 h) ([5]; oral 20 mg/kg, SIDM rats, 20 mg/kg): 0.238 % of dose and 0.238 ± 0.160 % of dose
- GI24 h (dose remaining in the gastrointestinal tract at 24 h) ([5]; oral 20 mg/kg, control rats, 20 mg/kg): 0.177 % of dose and 0.177 ± 0.123 % of dose
- Terminal half-life [7]: approximately 3.3 h
